Experimental data: patent US9828379B2 (priority 2013, dated 2017)

Columns and labels:
ABHD6 [1] = biological target: T1, ABHD6 (Mus musculus, UniProt Q8R2Y0); assay: biochemical; settings: in vitro competitive ABPP
T1 sequence (Q8R2Y0 1-336): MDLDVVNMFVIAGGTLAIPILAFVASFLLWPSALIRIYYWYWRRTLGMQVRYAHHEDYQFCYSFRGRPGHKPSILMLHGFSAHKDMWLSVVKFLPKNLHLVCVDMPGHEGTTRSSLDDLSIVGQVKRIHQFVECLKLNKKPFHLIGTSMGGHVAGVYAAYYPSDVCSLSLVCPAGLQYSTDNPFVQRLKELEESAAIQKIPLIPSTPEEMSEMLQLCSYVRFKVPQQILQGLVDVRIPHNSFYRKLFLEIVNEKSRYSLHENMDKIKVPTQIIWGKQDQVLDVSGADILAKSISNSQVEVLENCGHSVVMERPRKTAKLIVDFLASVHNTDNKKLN

FAAH [2] = biological target: T2, FAAH (Mus musculus, UniProt O08914); assay: biochemical; settings: in vitro competitive ABPP
T2 sequence (O08914 1-579): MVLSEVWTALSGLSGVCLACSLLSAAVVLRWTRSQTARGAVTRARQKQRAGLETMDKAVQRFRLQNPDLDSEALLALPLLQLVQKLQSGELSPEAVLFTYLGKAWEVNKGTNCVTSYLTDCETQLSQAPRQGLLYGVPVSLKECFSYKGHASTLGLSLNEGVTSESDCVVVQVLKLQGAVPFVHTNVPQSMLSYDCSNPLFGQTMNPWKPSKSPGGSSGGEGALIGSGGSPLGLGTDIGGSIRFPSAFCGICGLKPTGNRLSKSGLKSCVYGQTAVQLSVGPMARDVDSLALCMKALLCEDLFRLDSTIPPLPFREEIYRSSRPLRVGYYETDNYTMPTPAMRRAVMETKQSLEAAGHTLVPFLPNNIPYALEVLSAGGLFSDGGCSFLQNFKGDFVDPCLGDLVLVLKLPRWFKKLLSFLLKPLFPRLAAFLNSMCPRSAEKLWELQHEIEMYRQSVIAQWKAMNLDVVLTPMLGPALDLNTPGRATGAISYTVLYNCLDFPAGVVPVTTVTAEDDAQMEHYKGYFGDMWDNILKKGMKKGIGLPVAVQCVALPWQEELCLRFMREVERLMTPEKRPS

MAGL [3] = biological target: T3, MAGL (Mus musculus, UniProt O35678); assay: biochemical; settings: mouse; in vitro competitive ABPP; read-out: Mouse (IC50 value, nM) MAGL
T3 sequence (O35678 1-303): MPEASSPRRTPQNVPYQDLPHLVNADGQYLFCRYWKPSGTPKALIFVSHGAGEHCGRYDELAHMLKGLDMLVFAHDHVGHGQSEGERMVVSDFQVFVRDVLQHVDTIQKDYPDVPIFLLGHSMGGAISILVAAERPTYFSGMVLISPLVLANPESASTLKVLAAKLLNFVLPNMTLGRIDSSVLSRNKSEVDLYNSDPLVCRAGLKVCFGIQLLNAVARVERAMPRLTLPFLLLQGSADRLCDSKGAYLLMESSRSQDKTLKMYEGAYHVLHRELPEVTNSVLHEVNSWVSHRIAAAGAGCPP

Mouse brain MAGL = biological target: T4, Mouse brain MAGL (Mus musculus, UniProt O35678); assay: Mouse brain proteomes from inhibitor treated mice (oral gavage, ABPP analysis); assay type: in vivo; settings: p.o., sacrificed 4 h following administration
T4 construct: from tissue; host or cells: brain of wild-type C57Bl/6J mice dosed by oral gavage
T4 sequence (O35678 1-303): T3 sequence (O35678 1-303)
Experimental: After 30 min, FP—Rh (1.0 μL, 50 μM in DMSO) was added and the mixture was incubated for another 30 min at 37° C. Reactions were quenched with SDS loading buffer (50 μL-4×) and run on SDS-PAGE. Following gel imaging, serine hydrolase activity was determined by measuring fluorescent intensity of gel bands corresponding to MAGL, ABHD6 and FAAH using ImageJ 1.43 u software.
Inhibitors were administered to wild-type C57Bl/6J by oral gavage in a vehicle of polyethylene glycol. Each animal was sacrificed 4 h following administration and brain proteomes were prepared and analyzed according to previously established methods (See Niphakis, M. J., et al. (2011) ACS Chem. Neurosci. and Long, J. Z., et al. Nat. Chem. Biol. 5:37-44).

ABHD6 [4] = biological target: T1, ABHD6; assay: In vitro competitive activity-based protein profiling (Table 2, % inhibition at 1 μM); assay type: biochemical; settings: read-out: % Inhibition at 1 μM ABHD6
FAAH [5] = biological target: T2, FAAH; assay: as above; assay type: biochemical; settings: read-out: % Inhibition at 1 μM FAAH
MAGL [6] = biological target: T3, MAGL; assay: as above; assay type: biochemical; settings: read-out: % Inhibition at 1 μM MAGL
Experimental: After 30 min, FP—Rh (1.0 μL, 50 μM in DMSO) was added and the mixture was incubated for another 30 min at 37° C. Reactions were quenched with SDS loading buffer (50 μL-4×) and run on SDS-PAGE.
Cell lysates were diluted with mock proteomes for use in competitive ABPP experiments.

| Structure (SMILES) | IC50 (ABHD6 [1]) [nM] | IC50 (FAAH [2]) [nM] | IC50 (MAGL [3]) [nM] | inhibition at 5 mg/kg (Mouse brain MAGL) [%] | inhibition at 1 µM (ABHD6 [4]) [%] | inhibition at 1 µM (FAAH [5]) [%] | inhibition at 1 µM (MAGL [6]) [%] |
| --- | --- | --- | --- | --- | --- | --- | --- |
| CS(=O)(=O)N1CC2(CCN(c3ccccc3CN3CC4CN(C(=O)OC(C(F)(F)F)C(F)(F)F)CC4C3)C2)C1 (stereo not shown) [Example 136, 1,1,1,3,3,3-hexafluoropropan-2-yl 5-[(2-[2-methanesulfonyl-2,6-diazaspiro[3.4]octan-6-yl]phenyl)methyl]-octahydropyrrolo[3,4-c]pyrrole-2-carboxylate] | 1000 to 10000 | 1000 to 10000 | < 100 | ≤ 25 | < 25 | < 25 | > 75 |
| Cc1cc(CN2CC3CN(C(=O)OC(C(F)(F)F)C(F)(F)F)CC3C2)n(C2CCCCC2)n1 (stereo not shown) [Example 58, 1,1,1,3,3,3-Hexafluoropropan-2-yl 5-[(1-cyclohexyl-3-methyl-1H-pyrazol-5-yl)methyl]-octahydropyrrolo[3,4-c]pyrrole-2-carboxylate] | 1000 to 10000 | > 10000 | < 100 | ≥ 75 | 25 to 75 | < 25 | > 75 |
| CCn1cc(CN2CC3CN(C(=O)OC(C(F)(F)F)C(F)(F)F)CC3C2)c(-c2cccc(N3CCOCC3)c2)n1 (stereo not shown) [Example 65, 1,1,1,3,3,3-Hexafluoropropan-2-yl 5-([1-ethyl-3-[3-(morpholin-4-yl)phenyl]-1H-pyrazol-4-yl]methyl)-octahydropyrrolo[3,4-c]pyrrole-2-carboxylate] | 1000 to 10000 | 1000 to 10000 | < 100 | ≤ 25 | < 25 | < 25 | > 75 |
| O=C(OC(C(F)(F)F)C(F)(F)F)N1CC2CN(Cc3ccc(Cl)cc3N3CC4CCC(C3)O4)CC2C1 (stereo not shown) [Example 3, 1,1,1,3,3,3-Hexafluoropropan-2-yl 5-(2-(8-oxa-3-azabicyclo[3.2.1]octan-3-yl)-4-chlorobenzyl)hexahydropyrrolo[3,4-c]pyrrole-2(1H)-carboxylate] | 1000 to 10000 | 1000 to 10000 | < 100 | ≤ 25 | 25 to 75 | 25 to 75 | > 75 |
| CC(C)c1cc(CN2CC3CN(C(=O)OC(C(F)(F)F)C(F)(F)F)CC3C2)n(C2CCOCC2)n1 (stereo not shown) [Example 62, 1,1,1,3,3,3-Hexafluoropropan-2-yl 5-[[1-(oxan-4-yl)-3-(propan-2-yl)-1H-pyrazol-5-yl]methyl]-octahydropyrrolo[3,4-c]pyrrole-2-carboxylate] | 1000 to 10000 | 1000 to 10000 | < 100 | ≥ 75 | 25 to 75 | < 25 | > 75 |
| CC(C)n1cc(CN2CC3CN(C(=O)OC(C(F)(F)F)C(F)(F)F)CC3C2)c(-c2cccc(Cl)c2)n1 (stereo not shown) [Example 174, 1,1,1,3,3,3-hexafluoropropan-2-yl 5-[[3-(3-chlorophenyl)-1-(propan-2-yl)-1H-pyrazol-4-yl]methyl]-octahydropyrrolo[3,4-c]pyrrole-2-carboxylate] | 1000 to 10000 | 1000 to 10000 | < 100 | ≤ 25 | 25 to 75 | < 25 | > 75 |
| Cn1cc(CN2CC3CN(C(=O)OC(C(F)(F)F)C(F)(F)F)CC3C2)c(-c2ccccc2)n1 (stereo not shown) [Example 50, 1,1,1,3,3,3-Hexafluoropropan-2-yl 5-((1-methyl-3-phenyl-1H-pyrazol-4-yl)methyl)hexahydropyrrolo[3,4-c]pyrrole-2(1H)-carboxylate] | 1000 to 10000 | 1000 to 10000 | < 100 | 25 to 75 | 25 to 75 | < 25 | > 75 |
| Cc1c(CN2CC3CN(C(=O)OC(C(F)(F)F)C(F)(F)F)CC3C2)cccc1N1CCOCC1 (stereo not shown) [Example 47, 1,1,1,3,3,3-Hexafluoropropan-2-yl 5-[[2-methyl-3-(morpholin-4-yl)phenyl]methyl]-octahydropyrrolo[3,4-c]pyrrole-2-carboxylate] | 1000 to 10000 | 1000 to 10000 | < 100 | ≥ 75 | 25 to 75 | 25 to 75 | > 75 |
| CS(=O)(=O)N1CCN(c2cc(Cl)ccc2CN2CC3CN(C(=O)OC(C(F)(F)F)C(F)(F)F)CC3C2)CC1 (stereo not shown) [Example 36, 1,1,1,3,3,3-Hexafluoropropan-2-yl 5-[[4-chloro-2-(4-methanesulfonylpiperazin-1-yl)phenyl]methyl]-octahydropyrrolo[3,4-c]pyrrole-2-carboxylate] | 100 to 1000 | 1000 to 10000 | < 100 | 25 to 75 | 25 to 75 | < 25 | > 75 |
| O=C(OC(C(F)(F)F)C(F)(F)F)N1CC2CN(Cc3cccc(Cl)c3N3CC[C@H](CF)C3)CC2C1 (stereo partly drawn) [Example 173, 1,1,1,3,3,3-hexafluoropropan-2-yl 5-([3-chloro-2-[(3S)-3-(fluoromethyl)pyrrolidin-1-yl]phenyl]methyl)-octahydropyrrolo[3,4-c]pyrrole-2-carboxylate] | > 10000 | 1000 to 10000 | < 100 | 25 to 75 | 25 to 75 | < 25 | > 75 |
| CCn1cc(CN2CC3CN(C(=O)OC(C(F)(F)F)C(F)(F)F)CC3C2)c(-c2cccc(N3CCCCC3)c2)n1 (stereo not shown) [Example 132, 1,1,1,3,3,3-hexafluoropropan-2-yl 5-([1-ethyl-3-[3-(piperidin-1-yl)phenyl]-1H-pyrazol-4-yl]methyl)-octahydropyrrolo[3,4-c]pyrrole-2-carboxylate] | 1000 to 10000 | 1000 to 10000 | < 100 | ≤ 25 | < 25 | < 25 | > 75 |
| CC(C)n1cc(CN2CC3CN(C(=O)OC(C(F)(F)F)C(F)(F)F)CC3C2)c(C2CCN(S(C)(=O)=O)CC2)n1 (stereo not shown) [Example 57, 1,1,1,3,3,3-Hexafluoropropan-2-yl 5-[[3-(1-methanesulfonylpiperidin-4-yl)-1-(propan-2-yl)-1H-pyrazol-4-yl]methyl]-octahydropyrrolo[3,4-c]pyrrole-2-carboxylate] | 1000 to 10000 | > 10000 | < 100 | ≤ 25 | 25 to 75 | < 25 | > 75 |
| O=C(OC(C(F)(F)F)C(F)(F)F)N1CC2CN(Cc3cccc(Cl)c3N3CCC4(CCOCC4)C3)CC2C1 (stereo not shown) [Example 172, 1,1,1,3,3,3-hexafluoropropan-2-yl 5-[(3-chloro-2-[8-oxa-2-azaspiro[4.5]decan-2-yl]phenyl)methyl]-octahydropyrrolo[3,4-c]pyrrole-2-carboxylate] | 1000 to 10000 | > 10000 | < 100 | ≤ 25 | < 25 | < 25 | > 75 |
